*1 amine or outer side, *2 acyl side, *3 side chain or, on linkers, in order; H or OH if unused. Where a SMILES comes first, the peptide text is derived from it. Bridges are numbered along the chain shown (N, C = ends). [ ]: non-standard residue; d: D form. The star is where a group is joined. X2 = C[C@H]1CC[C@@H](N2CCN(c3ccc(-c4nnc(-c5ccc(C(=O)*)cc5)s4)cc3)CC2)CC1; X1 = O=C(c1ccc(-c2nnc(-c3ccc(N4CCN(C5CCCCC5)CC4)cc3)s2)cc1)*; Orn(3R-OH,Nδ-CH(CH2OH)2) = N[C@H](C(=O)O)[C@H](O)CCNC(CO)CO; hTyr(βR-OH,3-OMe) = COc1cc(C[C@@H](O)[C@H](N)C(=O)O)ccc1O; Orn(4R-OH) = O=C([C@H](C[C@@H](O)CN[*:3])N[*:1])[*:2]; Pro(3S-OH,4S-Me) = C[C@H]1CN[C@H](C(=O)O)[C@H]1O; Orn(3R-OH) = NCC[C@@H](O)[C@H](N)C(=O)O; Hyp = O=C(O)[C@@H]1C[C@@H](O)CN1
Tested on: Candida albicans FP-633
Assay type: cell-based
Details: FP-633, pH 7.3
Method: In vitro antimicrobial activity of the object compound of Examples 1, 7, 12 and 19 disclosed later was determined by MICs in mouse serum as described below.
The MIC5 in mouse serum were determined by the microdilution method using ICR mouse serum buffered with 20 mM HEPES buffer (pH 7.3) as a test medium. Inoculum suspension of 10^6 cells/ml were prepared by a hemocytometric procedure and diluted to obtain an inoculum size of approximately 1.0×10^3 cells/ml. Microplates were incubated at 37° C. for […] in 5% CO2. The MICs was defined as the lowest concentrations at which no visible growth was observed.

MIC, <0.2 µg/mL:
COc1cc(C[C@@H](O)[C@@H]2NC(=O)[C@@H]3C[C@@H](O)CN3C(=O)[C@H]([C@@H](C)O)NC(=O)[C@@H](NC(=O)c3ccc(-c4nnc(-c5ccc(N6CCN([C@H]7CC[C@@H](C)CC7)CC6)cc5)s4)cc3)C[C@@H](O)CNC(=O)[C@@H]3[C@@H](O)[C@@H](C)CN3C(=O)[C@H]([C@H](O)CCN)NC2=O)ccc1O [Example 1] (X2-[Orn(4R-OH)]T[Hyp][hTyr(βR-OH,3-OMe)][Orn(3R-OH)][Pro(3S-OH,4S-Me)]; lactam 1-C), COc1cc(C[C@@H](O)[C@@H]2NC(=O)[C@@H]3C[C@@H](O)CN3C(=O)[C@H]([C@@H](C)O)NC(=O)[C@@H](NC(=O)c3ccc(-c4nnc(-c5ccc(N6CCN(C7CCCCC7)CC6)cc5)s4)cc3)C[C@@H](O)CNC(=O)[C@@H]3[C@@H](O)[C@@H](C)CN3C(=O)[C@H]([C@H](O)CCN)NC2=O)ccc1O [Example 7] (X1-[Orn(4R-OH)]T[Hyp][hTyr(βR-OH,3-OMe)][Orn(3R-OH)][Pro(3S-OH,4S-Me)]; lactam 1-C), COc1cc(C[C@@H](O)[C@@H]2NC(=O)[C@@H]3C[C@@H](O)CN3C(=O)[C@H]([C@@H](C)O)NC(=O)[C@@H](NC(=O)c3ccc(-c4nnc(-c5ccc(N6CCN([C@H]7CC[C@@H](C)CC7)CC6)cc5)s4)cc3)C[C@@H](O)CNC(=O)[C@@H]3[C@@H](O)[C@@H](C)CN3C(=O)[C@H]([C@H](O)CCNC(CO)CO)NC2=O)ccc1O [Example 19] (X2-[Orn(4R-OH)]T[Hyp][hTyr(βR-OH,3-OMe)][Orn(3R-OH,Nδ-CH(CH2OH)2)][Pro(3S-OH,4S-Me)]; lactam 1-C)

From US20050014685A1, “New compound” (FUJISAWA PHARMACEUTICAL CO., LTD., priority 2003, published 2005)
